One assay concerns the target αvβ6 (Homo sapiens (Human), UniProt P06756+P18564). Put plainly: αVβ6-LAP-TGF β1 integrin binding assay (integrin coupled beads, flow cytometry). The note with it: ligand LAP-TGF β1 10 nM; integrin 10 nM. How it is done:
(§1) αVβ6/αVβ8-LAP-TGF β1 Binding Assay
(§2) Integrins αVβ6/αVβ8 coupled beads are treated with an αVβ6/αVβ8 ligand (e.g., LAP TGF-β1 (LAP1)), and the complex is incubated with a primary antibody (Ab), which can be labeled for detection (e.g., fluorescently labeled), and optionally with a secondary antibody, which can be labeled for detection (e.g., fluorescently labeled). Reaction between integrin coupled beads and the ligand was considered as the full reaction, and reaction without the ligand or a compound of the disclosure was considered as the blank reaction. The complex is analyzed, e.g., by either plate reader or Flow Cytometer, to determine modulation of binding between αVβ6/αVβ8 and the ligand (e.g., LAP-TGF β1) by the compounds of the present application.
All αv Integrins are known to bind to proteins with a RGD motif. […]
The integrin coupled Dyna beads were allowed to interact with respective ligands. The integrin-ligand complex was detected with either Primary/Secondary Antibody conjugated with Fluorescein Isothiocyanate (FITC). […] Fluorescence was measured by Flow Cytometry analysis. […]
(§3) The tubes were taken out and subjected to a quick spin. […] The amount of protein bound to beads was quantified by measuring the sum of protein left in the Supernatant, W1, W2, W3 and W4 through the Micro BCA method. […]
A general note: Flow cytometry measures light scatter and fluorescence of single cells or particles in a stream.

Another assay deals with αvβ8 (Homo sapiens (Human), UniProt P06756+P26012). Put plainly: αVβ8-LAP-TGF β1 integrin binding assay (integrin coupled beads, flow cytometry). As to conditions: for IC50: ligand LAP-TGF β1 20 nM, integrin 10 nM. The procedure:
as §1, §2
All αv Integrins are known to bind to proteins with a RGD motif. Two RGD ligands were used in this study: Vitronectin (VN) as a ligand for αvβ3 and αvβ5 (Wayner et al., J. Cell Biol., 113 (4), 919-929, 1991), and LAP TGF-β1 (LAP1) as a ligand for αvβ6 and αvβ8 (Rognoni et al., Nat. Med., 20(4): 350-359, 2014). CWHM12 was used as a positive control for αvβ6 and αvβ8 (Henderson et al., Nat. Med. 19(12), 10.1038/nm.3282 2013), and Cilengitide as a positive control for αvβ3 and αvβ5 (Kumar et al., J. Pharmacol. Exp. Ther., 283, 843-853, 1997).
The integrin coupled Dyna beads were allowed to interact with respective ligands. The integrin-ligand complex was detected with either Primary/Secondary Antibody conjugated with Fluorescein Isothiocyanate (FITC). For αvβ3 and αvβ5, Vitronectin was used as a ligand and a primary antibody conjugated with FITC (Anti-VN-FITC Ab) was used to detect the interaction. For αvβ6 and αvβ8, LAP-TGF β1 was used as ligand and a primary antibody against LAP1 (Anti-LAP1 Ab) and a secondary antibody conjugated with FITC were used to detect the αv β6/αvβ8-LAP-TGF β1 complex. Fluorescence was measured by Flow Cytometry analysis.
5 mg of Dyna beads were weighed in a low protein binding microfuge (Eppendorf) tube (1.5 mL volume). The beads were re-suspended in 1 mL of Sodium Phosphate Buffer and vortexed at high speed for 30 seconds. The tube was then placed in a tube roller and tilt rotated for 10 min. After tilt rotation, the tube was placed on the Magna Spin and the beads were allowed to settle. The supernatant was discarded and the beads were washed three times. The beads were then re-suspended in 100 μL of Sodium Phosphate Buffer and 20 μL of washed beads were distributed into 5 low protein binding Eppendorf tubes (1 mg of beads in each tube). The beads were used for coupling integrins. […]
as §3

What is called IC50 is the concentration at which inhibition is half-maximal. A lower IC50 goes with inhibition by little substance.

αvβ8, sequence (P06756 31-992): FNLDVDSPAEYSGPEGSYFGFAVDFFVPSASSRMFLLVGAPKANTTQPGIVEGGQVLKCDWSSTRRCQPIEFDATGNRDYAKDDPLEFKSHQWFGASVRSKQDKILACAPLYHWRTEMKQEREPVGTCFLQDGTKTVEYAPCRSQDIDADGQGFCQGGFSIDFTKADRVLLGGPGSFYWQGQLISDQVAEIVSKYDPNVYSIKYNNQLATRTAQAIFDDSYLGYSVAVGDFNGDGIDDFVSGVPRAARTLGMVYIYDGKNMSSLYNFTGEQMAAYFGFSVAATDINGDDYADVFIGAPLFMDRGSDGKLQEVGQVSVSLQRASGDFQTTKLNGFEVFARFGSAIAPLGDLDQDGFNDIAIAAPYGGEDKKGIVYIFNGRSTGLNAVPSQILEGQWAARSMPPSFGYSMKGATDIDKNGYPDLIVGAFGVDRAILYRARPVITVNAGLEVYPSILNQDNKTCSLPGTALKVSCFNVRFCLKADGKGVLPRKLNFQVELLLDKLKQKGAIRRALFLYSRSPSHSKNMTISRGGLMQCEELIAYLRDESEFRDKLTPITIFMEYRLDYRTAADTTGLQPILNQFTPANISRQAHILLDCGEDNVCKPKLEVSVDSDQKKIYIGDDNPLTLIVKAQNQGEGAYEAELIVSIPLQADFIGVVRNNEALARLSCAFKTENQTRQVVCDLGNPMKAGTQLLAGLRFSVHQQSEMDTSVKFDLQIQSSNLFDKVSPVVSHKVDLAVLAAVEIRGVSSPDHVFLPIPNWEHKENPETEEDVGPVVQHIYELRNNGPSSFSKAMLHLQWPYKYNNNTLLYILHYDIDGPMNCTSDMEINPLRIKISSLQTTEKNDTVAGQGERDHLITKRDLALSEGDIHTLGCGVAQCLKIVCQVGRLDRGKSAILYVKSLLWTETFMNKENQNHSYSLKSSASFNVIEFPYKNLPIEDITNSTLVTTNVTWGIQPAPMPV
αvβ8, sequence (P26012 43-684): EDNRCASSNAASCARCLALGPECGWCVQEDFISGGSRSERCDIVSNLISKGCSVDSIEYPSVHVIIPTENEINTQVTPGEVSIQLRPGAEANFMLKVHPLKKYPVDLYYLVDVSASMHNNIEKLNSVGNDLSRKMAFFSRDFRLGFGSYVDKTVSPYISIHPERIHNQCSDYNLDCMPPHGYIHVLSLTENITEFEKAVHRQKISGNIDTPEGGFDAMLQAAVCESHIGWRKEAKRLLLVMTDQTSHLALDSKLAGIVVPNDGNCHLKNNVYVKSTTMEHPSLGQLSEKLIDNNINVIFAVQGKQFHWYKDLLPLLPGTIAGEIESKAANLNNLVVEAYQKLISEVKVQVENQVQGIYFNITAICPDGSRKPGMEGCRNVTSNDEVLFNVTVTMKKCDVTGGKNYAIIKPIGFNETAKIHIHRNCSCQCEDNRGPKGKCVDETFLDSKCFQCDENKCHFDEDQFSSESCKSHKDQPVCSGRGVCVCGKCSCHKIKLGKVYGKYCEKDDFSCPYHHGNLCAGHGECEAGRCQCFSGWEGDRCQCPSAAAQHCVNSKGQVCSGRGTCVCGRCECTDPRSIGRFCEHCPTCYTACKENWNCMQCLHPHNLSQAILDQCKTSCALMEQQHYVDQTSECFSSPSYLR
αvβ6, sequence (P06756 31-992): as the sequence (P06756 31-992) above
αvβ6, sequence (P18564 22-707): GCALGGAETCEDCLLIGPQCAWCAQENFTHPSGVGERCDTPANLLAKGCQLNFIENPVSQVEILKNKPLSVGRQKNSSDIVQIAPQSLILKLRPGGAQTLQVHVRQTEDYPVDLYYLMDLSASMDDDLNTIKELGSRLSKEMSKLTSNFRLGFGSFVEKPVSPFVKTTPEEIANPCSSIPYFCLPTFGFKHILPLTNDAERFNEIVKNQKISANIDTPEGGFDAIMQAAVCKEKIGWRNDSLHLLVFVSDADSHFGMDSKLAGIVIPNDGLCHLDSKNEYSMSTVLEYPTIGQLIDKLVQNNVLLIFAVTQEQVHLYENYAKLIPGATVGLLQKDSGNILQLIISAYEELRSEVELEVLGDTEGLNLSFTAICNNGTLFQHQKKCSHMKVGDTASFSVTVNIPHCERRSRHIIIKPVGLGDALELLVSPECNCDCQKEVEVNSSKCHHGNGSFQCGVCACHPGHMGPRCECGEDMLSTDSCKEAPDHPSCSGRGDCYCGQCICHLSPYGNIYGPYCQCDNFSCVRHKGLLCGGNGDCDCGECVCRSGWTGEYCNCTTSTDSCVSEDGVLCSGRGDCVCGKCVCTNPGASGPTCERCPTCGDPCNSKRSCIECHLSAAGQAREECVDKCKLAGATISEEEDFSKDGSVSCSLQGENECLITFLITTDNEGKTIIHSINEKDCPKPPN

Take `O=C(O)CC(c1cccc(C(F)(F)F)c1)N1CCN(CCCCNc2nc3ccccc3[nH]2)C1=O` (stereo not drawn) [Compound A1, 3-(3-(4-((1H-benzo[d]imidazol-2-yl)amino)butyl)-2-oxoimidazolidin-1-yl)-3-(3-(trifluoromethyl)phenyl)propanoic acid]: the IC50 on αvβ6 was 376 nM; at αvβ8, 50.4 nM. Further, on αvβ8 (ratio of αvβ8 IC50 to αvβ6 IC50), the αvβ8/αvβ6 is 0.13.
With `O=C(O)CC(c1cccc(C(F)(F)F)c1)N1CCN(CCCCNC2=NCc3ccccc3C2)C1=O` (stereo not drawn) [Compound A8], on αvβ8, the IC50 came to 622 nM. That is a sub-micromolar value.
For `O=C(O)CC(c1cccc(C(F)(F)F)c1)N1CCN(CCCCNc2ccccn2)C1=O` (stereo not drawn) [Compound A10], the IC50 on αvβ6 is 394 nM; at αvβ8, 232 nM.

The values are drawn from patent US10118929B2, “Nonanoic and decanoic acid derivatives and uses thereof” (SciFluor Life Sciences, Inc., priority 2016, dated 2018).
